Our source for the EC50 values is US8039504B2 (priority 2003, dated 2011).

Holding throughout (assay): microbe, parasite or virus in culture
Type in all cases: cell-based

In one experiment the test system is wild type cowpox virus. Particulars: read-out: Cowpox EC50.
The next experiment deals with Vaccinia virus (NYCBH). Particulars: Orthopoxvirus vaccinia, Vero, 72 h.
The next experiment concerns camelpox. Particulars: read-out: Camelpox EC50.
The test system of experiment [1] is monkeypox virus (Zaire (V79-1-005-scab)). Particulars: read-out: Monkeypox EC50.
Where [2] appears, read: read-out: EC50 of reference standards in vaccinia CPE assay.

The structures appear in SMILES notation. Like-named read-outs stand apart in the source and are kept apart here.

As for `O=C(NN1C(=O)[C@@H]2C3CCC(CC3)[C@@H]2C1=O)c1ccc(C(F)(F)F)cc1` [Example 29, 4-Trifluoromethyl-N-bicyclo [2.2.2]octane-2,3-dicarboximido-benzamide], the EC50 in the experiment on wild type cowpox virus and in the experiment with Vaccinia virus (NYCBH) (read-out: Vaccinia EC50) was < 500 nM each time.
With `O=C(NN1C(=O)[C@@H]2C3C=CC(C3)[C@@H]2C1=O)c1ccc(Cl)cc1Cl` [Example 27, 2,4-Dichloro-N-(1,3,3a,4,7,7a-hexahydro-1,3,-dioxo-4,7-methano-2H-isoindol-2-yl)-benzamide], the EC50 in the experiment on Vaccinia virus (NYCBH) (read-out: Vaccinia EC50) lay within 500 to 1000 nM.
As to `O=C(NN1C(=O)[C@@H]2C3C=CC(C4CC43)[C@@H]2C1=O)c1cccc(F)c1` (stereo partly shown) [Example 14, 3-Fluoro-N-(3,3a,4,4a,5,5a,6,6a,- octahydro-1,3-dioxo-4,6-ethenocycloprop[f]isoindol-2(1H)-yl)-benzamide], the EC50 in the experiment with wild type cowpox virus was 1000 to 5000 nM; in the experiment on Vaccinia virus (NYCBH) (read-out: Vaccinia EC50) it was < 500 nM.
`O=C(NN1C(=O)[C@@H]2C3CCC(C4CC43)[C@@H]2C1=O)c1ccc(Br)cc1` (stereo partly shown) [Example 15, 4-Bromo-N-(3,3a,4,4a,5,5a,6,6a-octahydro-1,3-dioxo-4,6-ethanocycloprop[f]isoindol-2(1H)-yl)-benzamide]: the EC50 (in the experiment with wild type cowpox virus; in the experiment with Vaccinia virus (NYCBH) (read-out: Vaccinia EC50); in the experiment with camelpox; in experiment [1]) was < 500 nM in each case.
Take `O=C(NN1C(=O)[C@@H]2C3C=CC(C4CC43)[C@@H]2C1=O)c1ccc(Cl)cc1` (stereo partly shown) [Example 8, 4-Chloro-N-(3,3a,4,4a,5,5a,6,6a,- octahydro-1,3-dioxo-4,6-ethenocycloprop[f]isoindol-2(1H)-yl)-benzamide]: the EC50 in the experiment with wild type cowpox virus was 500 to 1000 nM; with Vaccinia virus (NYCBH) (read-out: Vaccinia EC50) it was < 500 nM.
On to `Cc1nc(C)c(C(=O)NN2C(=O)[C@@H]3C4C=CC(C5CC54)[C@@H]3C2=O)s1` (stereo partly shown) [Example 41, 2,4-Dimethyl-N-(3,3a,4,4a,5,5a,6,6a-octahydro-1,3-dioxo-4,6-ethenocycloprop[f]isoindol-2(1H)-yl)-thiazole-5-carboxamide], for which the EC50 was 1000 to 5000 nM with wild type cowpox virus and < 500 nM with Vaccinia virus (NYCBH) (read-out: Vaccinia EC50).
For `O=C(NN1C(=O)[C@@H]2C3C=CC(C4CC43)[C@@H]2C1=O)c1ccccn1` (stereo partly shown) [Example 10, N-(3,3a,4,4a,5,5a,6,6a,- octahydro-1,3-dioxo-4,6-ethenocycloprop[f]isoindol-2(1H)-yl)-2-pyridinecarboxamide], the EC50 with wild type cowpox virus and in the experiment with Vaccinia virus (NYCBH) (read-out: Vaccinia EC50) was > 5000 nM in each case.
On to `Cc1ccc(C(=O)NN2C(=O)[C@@H]3C4C=CC(C5CC54)[C@@H]3C2=O)cc1` (stereo partly shown) [Example 22, 4-Methyl-N-(3,3a,4,4a,5,5a,6,6a,- octahydro-1,3-dioxo-4,6-ethanocycloprop[f]isoindol-2(1H)-yl)-benzamide], for which the values for the EC50 in the experiment with wild type cowpox virus and in the experiment with Vaccinia virus (NYCBH) (read-out: Vaccinia EC50) were 1000 to 5000 nM and < 500 nM, respectively.
As to `Nc1ccn(C[C@@H](CO)OCP(=O)(O)O)c(=O)n1` [CDV, (S)-1-(3-hydroxy-2-phosphonylmethoxypropyl)cytosine, reference compound], the EC50 with Vaccinia virus (NYCBH) (setting [2]) was found to be 84000 ± 15000 nM.
With `O=C(NN1C(=O)[C@@H]2C3C=CC(C4CC43)[C@@H]2C1=O)c1ccc(F)cc1` (stereo partly shown) [Example 13, 4-Fluoro-N-(3,3a,4,4a,5,5a,6,6a,- octahydro-1,3-dioxo-4,6-ethenocycloprop[f]isoindol-2(1H)-yl)-benzamide], the EC50 with wild type cowpox virus is 500 to 1000 nM; with Vaccinia virus (NYCBH) (read-out: Vaccinia EC50), < 500 nM.
As to `O=C(NN1C(=O)[C@@H]2C3C=CC(C4CC43)[C@@H]2C1=O)c1ccccc1Cl` (stereo partly shown) [Example 7, 2-Chloro-N-(3,3a,4,4a,5,5a,6,6a,- octahydro-1,3-dioxo-4,6-ethenocycloprop[f]isoindol-2(1H)-yl)-benzamide], the EC50 in the experiment with Vaccinia virus (NYCBH) (read-out: Vaccinia EC50) was < 500 nM.
For the compound `N#Cc1ccc(C(=O)NN2C(=O)[C@@H]3C4C=CC(C5CC54)[C@@H]3C2=O)cc1` (stereo partly shown) [Example 20, 4-Cyano-N-(3,3a,4,4a,5,5a,6,6a,- octahydro-1,3-dioxo-4,6-ethenocycloprop[f]isoindol-2(1H)-yl)-benzamide], the EC50 in the experiment on wild type cowpox virus and in the experiment with Vaccinia virus (NYCBH) (read-out: Vaccinia EC50) was < 500 nM throughout.
On to `O=C(NN1C(=O)[C@@H]2C3C=CC(C3)[C@@H]2C1=O)c1ccc(Br)cc1` [Example 26, 4-Bromo-N-(1,3,3a,4,7,7a-hexahydro-1,3,-dioxo-4,7-methano-2H-isoindol-2-yl)-benzamide], for which the EC50 with Vaccinia virus (NYCBH) (read-out: Vaccinia EC50) was < 500 nM.
In the case of `O=C1[C@@H]2C3C=CC(C4CC43)[C@@H]2C(=O)N1NC(=O)C12CC3CC(CC(C3)C1)C2` (stereo partly shown) [Example 24, N-(3,3a,4,4a,5,5a,6,6a,- octahydro-1,3-dioxo-4,6-ethenocycloprop[f]isoindol-2(1H)-yl)-tricyclo[3.3.1.13.7] decane-1-carboxamide], the EC50 in the experiment with wild type cowpox virus was 500 to 1000 nM; with Vaccinia virus (NYCBH) (read-out: Vaccinia EC50), < 500 nM; with camelpox, < 500 nM; in experiment [1], < 500 nM.
`O=C(O)CP(=O)(O)O` [PAA, phosphonoacetic acid, reference compound]: the EC50 with Vaccinia virus (NYCBH) (setting [2]) amounted to 985000 ± 85000 nM.
As for `O=C(NN1C(=O)[C@@H]2C3C=CC(C4CC43)[C@@H]2C1=O)c1ccc([N+](=O)[O-])cc1` (stereo partly shown) [Example 12, 4-Nitro-N-(3,3a,4,4a,5,5a,6,6a,- octahydro-1,3-dioxo-4,6-ethenocycloprop[f]isoindol-2(1H)-yl)-benzamide], the EC50 with wild type cowpox virus and in the experiment on Vaccinia virus (NYCBH) (read-out: Vaccinia EC50) was < 500 nM in each case.
As for `O=C(NN1C(=O)C2CCCCC2C1=O)c1ccc(Br)cc1` (stereo not shown) [Example 17, 4-Bromo-N-(octahydro-1,3-dioxo-2H-isoindol-2-yl)-benzamide], the EC50 in the experiment with wild type cowpox virus was 1000 to 5000 nM; in the experiment with Vaccinia virus (NYCBH) (read-out: Vaccinia EC50) it was < 500 nM.
On to `O=C(NN1C(=O)[C@@H]2C3C=CC(C4CC43)[C@@H]2C1=O)c1ccccc1Br` (stereo partly shown) [Example 6, 2-Bromo-N-(3,3a,4,4a,5,5a,6,6a,- octahydro-1,3-dioxo-4,6-ethenocycloprop[f]isoindol-2(1H)-yl)-benzamide], for which the EC50 is > 5000 nM in the experiment with wild type cowpox virus and 500 to 1000 nM in the experiment with Vaccinia virus (NYCBH) (read-out: Vaccinia EC50).
Consider `O=C(NN1C(=O)[C@@H]2C3C=CC(C4CC43)[C@@H]2C1=O)c1cccc(Cl)c1` (stereo partly shown) [Example 5, 3-Chloro-N-(3,3a,4,4a, 5,5a,6,6a,- octahydro-1,3-dioxo-4,6-ethenocycloprop[f]isoindol-2(1H)-yl)-benzamide], for which the EC50 in the experiment with wild type cowpox virus and in the experiment on Vaccinia virus (NYCBH) (read-out: Vaccinia EC50) was 500 to 1000 nM in each case.
As to `O=C(Cc1ccccc1)NN1C(=O)[C@@H]2C3C=CC(C4CC43)[C@@H]2C1=O` (stereo partly shown) [Example 25, N-(3,3a,4,4a,5,5a,6,6a,- octahydro-1,3-dioxo-4,6-ethenocycloprop[f]isoindol-2(1H)-yl)-benzeneacetamide], the results for the concentration giving a half-maximal response (EC50) with wild type cowpox virus and in the experiment on Vaccinia virus (NYCBH) (read-out: Vaccinia EC50) were > 5000 nM and 500 to 1000 nM, respectively.
For `O=C(NN1C(=O)[C@@H]2C3C=CC(C4CC43)[C@@H]2C1=O)c1cccc(Br)c1` (stereo partly shown) [Example 4, 3-Bromo-N-(3,3a,4,4a,5,5a,6,6a,- octahydro-1,3-dioxo-4,6-ethenocycloprop[f]isoindol-2(1H)-yl)-benzamide] the same measures were 1000 to 5000 nM and < 500 nM.
`O=C(NN1C(=O)[C@@H]2C3C=CC(CC3)[C@@H]2C1=O)c1ccc(C(F)(F)F)cc1` [Example 28, 4-Trifluoromethyl-N-bicylo [2.2.2]oct-5-ene-2,3-dicarboximido-benzamide]: the EC50 with wild type cowpox virus and in the experiment with Vaccinia virus (NYCBH) (read-out: Vaccinia EC50) was < 500 nM each time.
As to `COc1ccc(C(=O)NN2C(=O)[C@@H]3C4C=CC(C5CC54)[C@@H]3C2=O)cc1` (stereo partly shown) [Example 11, 4-Methoxy-N-(3,3a,4,4a,5,5a,6,6a,- octahydro-1,3-dioxo-4,6-ethenocycloprop[f]isoindol-2(1H)-yl)-benzamide], the EC50 was > 5000 nM with wild type cowpox virus and 1000 to 5000 nM in the experiment with Vaccinia virus (NYCBH) (read-out: Vaccinia EC50).
On the same counts, the results for `O=C(NN1C(=O)[C@@H]2C3CCC([C@H]4C[C@@H]34)[C@@H]2C1=O)c1ccc(C(F)(F)F)cc1` [Example 21, 4-Trifluoromethyl-N-(3,3a,4,4a,5,5a,6,6a,- octahydro-1,3-dioxo-4,6-ethanocycloprop[f]isoindol-2(1H)-yl)-benzamide] are < 500 nM and < 500 nM.
With `O=C(NN1C(=O)[C@@H]2C3CCC(CC3)[C@@H]2C1=O)c1ccc(Br)cc1` [Example 19, 4-Bromo-N-bicyclo[2.2.2]octane-2,3-dicarboximido-benzamide], the EC50 in the experiment with wild type cowpox virus and with Vaccinia virus (NYCBH) (read-out: Vaccinia EC50) was < 500 nM throughout.
As for `O=C(NN1C(=O)[C@@H]2C3C=CC(CC3)[C@@H]2C1=O)c1ccc(Br)cc1` [Example 18, 4-Bromo-N-bicyclo[2.2.2]oct-5-ene-2,3-dicarboximido-benzamide], the EC50 in the experiment on wild type cowpox virus and in the experiment on Vaccinia virus (NYCBH) (read-out: Vaccinia EC50) was < 500 nM each time.
As to `O=C(NN1C(=O)[C@@H]2C3C=CC(C4CC43)[C@@H]2C1=O)c1cccnc1` (stereo partly shown) [Example 9, N-(3,3a,4,4a,5,5a,6,6a,- octahydro-1,3-dioxo-4,6-ethenocycloprop[f]isoindol-2(1H)-yl)-3-pyridinecarboxamide], the EC50 with wild type cowpox virus was > 5000 nM; in the experiment with Vaccinia virus (NYCBH) (read-out: Vaccinia EC50) it was < 500 nM.
Consider `O=C(NN1C(=O)[C@@H]2C3C=CC(C4CC43)[C@@H]2C1=O)c1ccncc1` (stereo partly shown) [Example 2, N-(3,3a,4,4a,5,5a,6,6a,- octahydro-1,3-dioxo-4,6-ethenocycloprop[f]isoindol-2(1H)-yl)-4-pyridinecarboxamide], for which the EC50 was 1000 to 5000 nM in the experiment on wild type cowpox virus, < 500 nM in the experiment with Vaccinia virus (NYCBH) (read-out: Vaccinia EC50), < 500 nM in the experiment on camelpox and < 500 nM in experiment [1].
In the case of `O=C(NN1C(=O)[C@@H]2C3C=CC([C@@H]2C1=O)C31CC1)c1cccc(Br)c1` [Example 23, 3-Bromo-N-(1′,3,3′a,4′,7,7′a-hexahydro-1′,3′,dioxospiro [cyclopropane-1,8′-[4,7]methano[2H]isoindol]-2′-yl)-benzamide], the EC50 in the experiment on Vaccinia virus (NYCBH) (read-out: Vaccinia EC50) is < 500 nM.
